Source: patent US10640457B2, “Histone acetyltransferase activators and uses thereof” (The Trustees of Columbia University in the City of New York, priority 2009, dated 2020)
pIC50: −log10 of the molar value. Where “and” joins values, the source holds several entries; their conditions need not be identical. Equal entries are not always repeated. Entries after “also recorded” stand apart in the source; their conditions may differ.

Legend:
Aβ42-treated slices = test: LTP in Aβ42-treated hippocampal slices (YF2); details: 200 nM Aβ42-treated slices; YF2 1 μM for 30 min prior to the θ-burst
Procedure: Next, we checked if YF2 could attenuate synaptic and cognitive dysfunction after Aβ elevation. […] Next, we induced LTP or contextual fear memory as well as reference memory in the presence of oligomeric Aβ42, or vehicle. In the LTP experiments 200 nM Aβ42 or vehicle were perfused through the bath solution for 20 min prior to the application of the θ-burst. In the behavioral experiments 200 nM Aβ42 (in a final volume of 1 μl over 1 min) or vehicle were bilaterally infused 15 min prior to the foot shock or 15 min prior to the 1st trial (for the 1st group of tests in a 2-day radial arm water maze (RAWM) test assessing reference memory^[P34] (herein incorporated by reference in its entirety)) and 15 min prior to the 7th trial (for the 2nd group of tests of the RAWM) into dorsal hippocampus of the animal that had been pre-implanted with a cannula the week before. Aβ reduced LTP and both reference and contextual fear memory (FIG. 66).

[1] = test system: histone acetylation (ACH3) in hippocampus, cortex, liver; test: Western blot of histone acetylation in mouse tissues after compound administration; format: in vivo, mice
From the text: The mice liver and hippocampus were extracted 1 hr after treatment. […] In addition to the mouse liver and hippocampus, the mouse cortex was also extracted.
The BBB was by-passed by giving it through cannulas implanted onto the dorsal hippocampus. Both the hippocampus and cortex were extracted at 2 hrs or 4 hrs after treatment.
Two and four hrs after its administration, the mice were sacrificed and hippocampi were extracted. […] Purity was verified through Nuclear Magnetic Resonance (NMR). […] Hippocampus extraction was made at 3 different time points (0.5, 1 and 2 hrs post treatment). We then ran a western blotting for ACH3.
The compound was i.p. administered at 20 mg/Kg, mice were sacrificed 30 min later, and hippocampi were removed and quickly frozen for WB analysis. […] (each herein incorporated by reference in its entirety). […]

HDAC10 = biological target: T1, HDAC10 (Homo sapiens, UniProt Q969S8); test: HDAC10 fluorogenic activity assay; details: for % Activity: Repeat1/Repeat2, listed as OA2
T1 sequence (Q969S8 1-669): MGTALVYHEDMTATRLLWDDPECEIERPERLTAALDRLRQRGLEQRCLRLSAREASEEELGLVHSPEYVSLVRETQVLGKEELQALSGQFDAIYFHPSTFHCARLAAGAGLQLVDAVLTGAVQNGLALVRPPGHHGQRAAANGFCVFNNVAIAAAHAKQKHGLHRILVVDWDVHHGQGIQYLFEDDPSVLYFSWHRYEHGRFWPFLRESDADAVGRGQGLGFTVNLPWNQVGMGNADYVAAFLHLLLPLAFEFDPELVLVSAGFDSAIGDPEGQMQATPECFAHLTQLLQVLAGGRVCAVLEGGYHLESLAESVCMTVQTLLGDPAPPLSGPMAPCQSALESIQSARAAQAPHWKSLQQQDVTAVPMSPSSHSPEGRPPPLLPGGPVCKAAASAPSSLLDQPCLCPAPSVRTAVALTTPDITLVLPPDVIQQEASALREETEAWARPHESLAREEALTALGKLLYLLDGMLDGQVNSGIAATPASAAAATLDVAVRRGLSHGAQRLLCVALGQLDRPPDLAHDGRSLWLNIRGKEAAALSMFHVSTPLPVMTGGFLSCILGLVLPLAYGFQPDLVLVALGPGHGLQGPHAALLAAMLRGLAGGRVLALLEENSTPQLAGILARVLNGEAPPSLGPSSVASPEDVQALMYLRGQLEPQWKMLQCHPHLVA

p300 = biological target: T2, p300 (Homo sapiens, UniProt Q09472); test: In vitro HAT activation assay, p300; format: biochemical; details: in vitro assays; FIG. 72
T2 construct: we will use the catalytic domain of human CBP, PCAF, p300 and GCNS (Enzo Life Sci., USA); purchased Enzo Life Sci
From the text: Compounds will be tested for HAT activator activity first, using the HAT Assay kit from Active Motif (USA, CA). For this assay, we will use the catalytic domain of human CBP, PCAF, p300 and GCNS (Enzo Life Sci., USA). The catalytic domains for the remaining HATs will be produced using New England Biolabs K. lactis Protein Expression Kit. […] When assayed against all other HATs, they must show at least a 50 fold greater potency towards CBP and/or PCAF.

HDAC8 = biological target: T3, HDAC8 (Homo sapiens, UniProt Q9BY41); test: HDAC8 fluorogenic activity assay; details: for % Activity: Repeat1/Repeat2, listed as OA2
T3 sequence (Q9BY41 1-377): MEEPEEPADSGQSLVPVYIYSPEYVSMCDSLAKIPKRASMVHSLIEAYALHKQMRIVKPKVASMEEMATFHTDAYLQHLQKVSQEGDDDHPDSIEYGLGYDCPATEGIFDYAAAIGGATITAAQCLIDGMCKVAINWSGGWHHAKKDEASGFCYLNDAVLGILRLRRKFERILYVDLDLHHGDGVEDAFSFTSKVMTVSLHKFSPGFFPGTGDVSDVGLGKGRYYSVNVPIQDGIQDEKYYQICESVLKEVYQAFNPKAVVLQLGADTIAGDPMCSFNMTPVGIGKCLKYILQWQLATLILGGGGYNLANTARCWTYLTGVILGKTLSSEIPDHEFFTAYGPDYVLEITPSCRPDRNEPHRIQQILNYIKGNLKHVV

T2 sequence (Q09472 1287-1663 limits assumed): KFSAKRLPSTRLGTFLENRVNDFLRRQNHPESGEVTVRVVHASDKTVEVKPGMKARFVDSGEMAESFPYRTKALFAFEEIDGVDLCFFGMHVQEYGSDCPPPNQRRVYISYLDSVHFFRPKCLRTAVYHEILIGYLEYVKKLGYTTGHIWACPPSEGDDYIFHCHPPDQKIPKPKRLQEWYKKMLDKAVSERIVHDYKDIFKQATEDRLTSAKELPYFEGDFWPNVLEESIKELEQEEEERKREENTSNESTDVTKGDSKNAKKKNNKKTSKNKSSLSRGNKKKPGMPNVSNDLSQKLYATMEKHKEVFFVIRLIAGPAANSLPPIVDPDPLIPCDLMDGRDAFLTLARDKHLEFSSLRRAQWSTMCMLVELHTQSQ

CCOc1cccc(OCCN(C)C)c1C(=O)Nc1ccc(Cl)c(C(F)(F)F)c1 [YF2]
LTP deficit (Aβ42-treated slices): ameliorated; also recorded: rescues | acetylation of H3K4, H3K9, H3K14, H4K5, H4K8, H4K12, H4K16 and H2B in hippocampus ([1]; 20 mg/Kg i.p., sacrificed 30 min later): increased | ACH3 in hippocampus ([1]; 50 mg/kg i.p., 2 and 4 hrs after administration): increase | ACH3 levels in hippocampus ([1]; 5, 10, 20 mg/Kg i.p. in saline, 0.5, 1 and 2 hrs, except 1 hr-10 mg/kg): dramatically increased | histone acetylation levels following Aβ elevation ([1]; after foot shock, FIG. 80): restores | histone acetylation levels following Aβ elevation ([1]; basal conditions, FIG. 79): restores | crossing of the blood brain barrier (BBB) ([1]; concluded from brain histone acetylation after i.p. administration): able to cross the BBB; also recorded: crosses the BBB and the cell membrane | Aβ-induced decrease in H3 acetylation levels in hippocampus ([1]; i.p. 5 mg/kg, Aβ 200 nM infused onto dorsal hippocampi, 5 mg/kg): able to rescue; also recorded: rescued | histone 3 acetylation levels of the hippocampus ([1]; i.p., FIG. 1): increases | pIC50 (HDAC10): < 3.70 | % Activity (HDAC10; OA2 Log[nM] 0.5): 91.08% and 101.05% | % Activity (HDAC10; OA2 Log[nM] 1.0): 103.77% and 104.31% | % Activity (HDAC10; OA2 Log[nM] 1.5): 105.57% and 103.85% | % Activity (HDAC10; OA2 Log[nM] 2.0): 103.04% and 105.77% | % Activity (HDAC10; OA2 Log[nM] 2.5): 104.90% and 105.64% | % Activity (HDAC10; OA2 Log[nM] 3.0): 99.94% and 104.64% | % Activity (HDAC10; OA2 Log[nM] 3.5): 96.95% and 106.25% | % Activity (HDAC10; OA2 Log[nM] 4.0): 96.50% and 102.89% | % Activity (HDAC10; OA2 Log[nM] 4.5): 95.38% and 102.89% | % Activity (HDAC10; OA2 Log[nM] 5.3): 116.56% and 86.05% | effect on p300 activity (p300): did not interfere; also recorded: increases p300 activity | pIC50 (HDAC8): < 3.70 | % Activity (HDAC8; OA2 Log[nM] 0.5): 101.88% and 103.15% | % Activity (HDAC8; OA2 Log[nM] 1.5): 102.04% | % Activity (HDAC8; OA2 Log[nM] 2.0): 108.80% | % Activity (HDAC8; OA2 Log[nM] 3.0): 84.45% | % Activity (HDAC8; OA2 Log[nM] 3.5): 109.88% | % Activity (HDAC8; OA2 Log[nM] 4.5): 85.17% and 86.60% | % Activity (HDAC8; OA2 Log[nM] 5.3): 58.33% and 105.63%
